Tested on: first line metastatic castrate-resistant prostate cancer (mCRPC)
Assay: Phase 3 randomized double blind placebo-controlled study of masitinib in combination with docetaxel (+ prednisone), progression-free survival
Type: in vivo, human
Conditions: for Median progression-free survival (PFS): masitinib 6 mg/kg/day + docetaxel + prednisone; for Hazard Ratio / Risk Benefit: masitinib vs placebo, each + docetaxel + prednisone
Experimental: A prospective, multicenter, randomized, double blind, placebo-controlled, 2-parallel groups, phase 3 study was conducted to assess the efficacy and safety of masitinib in combination with docetaxel as compared to placebo in combination with docetaxel in first line metastatic castrate-resistant prostate cancer (mCRPC).
The objective of the study was to assess the efficacy and safety of masitinib in combination with docetaxel as compared to docetaxel in combination with placebo in first line metastatic castrate-resistant prostate cancer (mCRPC). Efficacy was assessed based on the progression-free survival (PFS), measured in months.
The patients recruited in the study consist of adult males suffering from prostate cancer who progressed to develop castration-resistant prostate cancer (CRPC) after castration treatment (reduction of androgens (e.g., testosterone, dihydrotestosterone (DHT)) by chemical or surgical means). These patients are considered to be patients in the first line metastatic castration-resistant prostate cancer (mCRPC).
The patients recruited in the study were randomized in two groups with a ratio 1:1: • Group 1: masitinib (6 mg/kg/day)+docetaxel (75 mg/m^2 6 cycles—8 or 10 cycles possible)+prednisone according to usual practice; • Group 2: placebo+docetaxel (75 mg/m^2 6 cycles—8 or 10 cycles possible)+prednisone according to usual practice.
Docetaxel was combined with prednisone as usual practice.
Patients were centrally randomized to one of the two treatment groups by IWRS (Interactive Web Response System) according to minimization method.
Inclusion criteria were: • Patient aged≥18 years old, with histologically or cytologically confirmed metastatic castrate-resistant prostate cancer (medical or surgical castration: androgens deprivation by GnRH agonist or antagonist or patient with surgical castration; hormonal castration confirmed biologically (testosterone<0.5 ng/ml) with one of the following criteria: • If surgical castration is done than there is no requirement to perform testosterone test. • Pre-treated with abiraterone with progressed disease documented, OR • With indication for initiating docetaxel administration (e.g., widespread visceral disease or rapidly progressive disease). • Patient with evidence of progressive metastatic disease. Disease progression at trial enrolment is based on progression in at least one variable as described in the Prostate Cancer Clinical Trials Working Group (PCWG2) definition of response and progression for disease manifestations in prostate cancer (Scher et al. J Clin Oncol. 2008; 26:1148-1159):
• Patient with ECOG≤1 • Patient with adequate organ function: […]

[1] = Halabi prognosis score H > 15 at baseline
[2] = Halabi prognosis score H > 16 at baseline
[3] = Halabi prognosis score H > 17 at baseline
[4] = Halabi prognosis score H > 18 at baseline
[5] = Halabi prognosis score H > 19 at baseline
[6] = Halabi prognosis score H > 20 at baseline
[7] = Halabi prognosis score H > 21 at baseline
[8] = Halabi prognosis score H > 22 at baseline
[9] = Halabi prognosis score H > 27 at baseline
[10] = Halabi prognosis score H > 33 at baseline
[11] = Halabi prognosis score H ≤ 15 at baseline
[12] = Halabi prognosis score H ≤ 16 at baseline
[13] = Halabi prognosis score H ≤ 17 at baseline
[14] = Halabi prognosis score H ≤ 18 at baseline
[15] = Halabi prognosis score H ≤ 19 at baseline
[16] = Halabi prognosis score H ≤ 20 at baseline
[17] = Halabi prognosis score H ≤ 21 at baseline
[18] = Halabi prognosis score H ≤ 22 at baseline
[19] = Halabi prognosis score H ≤ 27 at baseline
[20] = Halabi prognosis score H ≤ 33 at baseline
[21] = baseline ALP > 250 IU/L and H > 18
[22] = baseline ALP > 250 IU/L and H > 19
[23] = baseline ALP > 250 IU/L and H > 20
[24] = baseline ALP > 250 IU/L and H > 21
[25] = baseline ALP > 250 IU/L and H > 22
[26] = baseline ALP > 250 IU/L and H ≤ 20
[27] = baseline ALP > 250 IU/L and H ≤ 21
[28] = baseline ALP > 250 IU/L and H ≤ 22
[29] = baseline ALP equal to or lower than 100 IU/L and H equal to or lower than 18
[30] = baseline ALP equal to or lower than 150 IU/L and H equal to or lower than 18
[31] = baseline ALP equal to or lower than 200 IU/L and H equal to or lower than 18
[32] = baseline ALP ≤ 250 IU/L and H < 21
[33] = baseline ALP ≤ 250 IU/L and H < 22
[34] = baseline ALP ≤ 250 IU/L and H > 18
[35] = baseline ALP ≤ 250 IU/L and H > 19
[36] = baseline ALP ≤ 250 IU/L and H > 20
[37] = baseline ALP ≤ 250 IU/L and H > 21
[38] = baseline ALP ≤ 250 IU/L and H > 22
[39] = baseline ALP ≤ 250 IU/L and H ≤ 18
[40] = baseline ALP ≤ 250 IU/L and H ≤ 19
[41] = baseline ALP ≤ 250 IU/L and H ≤ 20

Structure (SMILES): Cc1ccc(NC(=O)c2ccc(CN3CCN(C)CC3)cc2)cc1Nc1nc(-c2cccnc2)cs1 [MASITINIB, 4-(4-methylpiperazin-1-ylmethyl)-N-[4-methyl-3-(4-pyridin-3ylthiazol-2-ylamino)phenyl]benzamide]
- Median progression-free survival (PFS) [1]: 5.5 months
- Hazard Ratio [1]: 0.99
- Risk Benefit [1]: 1%
- Median progression-free survival (PFS) [2]: 5.5 months
- Hazard Ratio [2]: 1.00
- Risk Benefit [2]: 0%
- Median progression-free survival (PFS) [3]: 5.5 months
- Hazard Ratio [3]: 1.00
- Risk Benefit [3]: 0%
- Median progression-free survival (PFS) [4]: 5.5 months
- Hazard Ratio [4]: 1.00
- Risk Benefit [4]: 0%
- Median progression-free survival (PFS) [5]: 5.4 months
- Hazard Ratio [5]: 1.00
- Risk Benefit [5]: 0%
- Median progression-free survival (PFS) [6]: 4.9 months
- Hazard Ratio [6]: 1.04
- Risk Benefit [6]: −4%
- Median progression-free survival (PFS) [7]: 4.9 months
- Hazard Ratio [7]: 1.07
- Risk Benefit [7]: −7%
- Median progression-free survival (PFS) [8]: 4.9 months
- Hazard Ratio [8]: 1.09
- Risk Benefit [8]: −9%
- Median progression-free survival (PFS) [9]: 4.8 months
- Hazard Ratio [9]: 1.20
- Risk Benefit [9]: −20%
- Median progression-free survival (PFS) [10]: 4.1 months
- Hazard Ratio [10]: 1.34
- Risk Benefit [10]: −34%
- Median progression-free survival (PFS) [11]: 15 months
- Hazard Ratio [11]: 0.28
- Risk Benefit [11]: 72%
- Median progression-free survival (PFS) [12]: 9.0 months
- Hazard Ratio [12]: 0.35
- Risk Benefit [12]: 65%
- Median progression-free survival (PFS) [13]: 7.0 months
- Hazard Ratio [13]: 0.49
- Risk Benefit [13]: 51%
- Median progression-free survival (PFS) [14]: 7.0 months
- Hazard Ratio [14]: 0.54
- Risk Benefit [14]: 46%
- Median progression-free survival (PFS) [15]: 6.9 months
- Hazard Ratio [15]: 0.69
- Risk Benefit [15]: 31%
- Median progression-free survival (PFS) [16]: 7.0 months
- Hazard Ratio [16]: 0.65
- Risk Benefit [16]: 36%
- Median progression-free survival (PFS) [17]: 7.0 months
- Hazard Ratio [17]: 0.65
- Risk Benefit [17]: 35%
- Median progression-free survival (PFS) [18]: 6.9 months
- Hazard Ratio [18]: 0.65
- Risk Benefit [18]: 35%
- Median progression-free survival (PFS) [19]: 6.5 months
- Hazard Ratio [19]: 0.75
- Risk Benefit [19]: 25%
- Median progression-free survival (PFS) [20]: 6.4 months
- Hazard Ratio [20]: 0.81
- Risk Benefit [20]: 19%
- Median progression-free survival (PFS) (baseline ALP > 100 IU/L): 5.4 months
- Hazard Ratio (baseline ALP > 100 IU/L): 1.02
- Median progression-free survival (PFS) (baseline ALP > 150 IU/L): 4.9 months
- Hazard Ratio (baseline ALP > 150 IU/L): 1.14
- Median progression-free survival (PFS) (baseline ALP > 200 IU/L): 4.4 months
- Hazard Ratio (baseline ALP > 200 IU/L): 1.17
- Median progression-free survival (PFS) [21]: 4.3 months
- Hazard Ratio [21]: 1.19
- Median progression-free survival (PFS) [22]: 4.2 months
- Hazard Ratio [22]: 1.18
- Median progression-free survival (PFS) [23]: 4.2 months
- Hazard Ratio [23]: 1.19
- Median progression-free survival (PFS) [24]: 4.2 months
- Hazard Ratio [24]: 1.19
- Median progression-free survival (PFS) [25]: 4.2 months
- Hazard Ratio [25]: 1.20
- Median progression-free survival (PFS) (baseline ALP > 250 IU/L and H ≤ 18): 3.4 months
- Median progression-free survival (PFS) (baseline ALP > 250 IU/L and H ≤ 19): 9.2 months
- Median progression-free survival (PFS) [26]: 13 months
- Hazard Ratio [26]: 1.78
- Median progression-free survival (PFS) [27]: 8.3 months
- Hazard Ratio [27]: 0.99
- Median progression-free survival (PFS) [28]: 8.3 months
- Hazard Ratio [28]: 0.88
- Median progression-free survival (PFS) (baseline ALP > 250 IU/L): 4.2 months
- Hazard Ratio (baseline ALP > 250 IU/L): 1.20
- Hazard Ratio [29]: 0.46
- Risk Benefit [29]: 56%
- Hazard Ratio [30]: 0.46
- Risk Benefit [30]: 55%
- Hazard Ratio [31]: about 0.5
- Risk Benefit [31]: about 50%
- Median progression-free survival (PFS) (baseline ALP ≤ 100 IU/L): 9.0 months
- Hazard Ratio (baseline ALP ≤ 100 IU/L): 0.53
- Risk Benefit (baseline ALP ≤ 100 IU/L): 47%
- Risk Benefit (baseline ALP ≤ 100 IU/L, listed as masitinib): 47%
- Median progression-free survival (PFS) (baseline ALP ≤ 150 IU/L): 6.9 months
- Hazard Ratio (baseline ALP ≤ 150 IU/L): 0.63
- Risk Benefit (baseline ALP ≤ 150 IU/L): 37%
- Median progression-free survival (PFS) (baseline ALP ≤ 200 IU/L): 6.9 months
- Hazard Ratio (baseline ALP ≤ 200 IU/L): 0.73
- Risk Benefit (baseline ALP ≤ 200 IU/L): 27%
- Median progression-free survival (PFS) [32]: 7.0 months
- Hazard Ratio [32]: 0.62
- Risk Benefit [32]: 38%
- Median progression-free survival (PFS) [33]: 6.9 months
- Hazard Ratio [33]: 0.63
- Risk Benefit [33]: 37%
- Median progression-free survival (PFS) [34]: 6.2 months
- Hazard Ratio [34]: 0.87
- Median progression-free survival (PFS) [35]: 6.1 months
- Hazard Ratio [35]: 0.86
- Median progression-free survival (PFS) [36]: 5.8 months
- Hazard Ratio [36]: 0.90
- Median progression-free survival (PFS) [37]: 5.8 months
- Hazard Ratio [37]: 0.94
- Median progression-free survival (PFS) [38]: 5.8 months
- Hazard Ratio [38]: 0.97
- Median progression-free survival (PFS) [39]: 7.7 months
- Hazard Ratio [39]: 0.52
- Risk Benefit [39]: 48%
- Median progression-free survival (PFS) [40]: 6.9 months
- Hazard Ratio [40]: 0.66
- Risk Benefit [40]: 34%
- Median progression-free survival (PFS) [41]: 7.0 months
- Hazard Ratio [41]: 0.62
- Risk Benefit [41]: 38%
- Median progression-free survival (PFS) (baseline ALP ≤ 250 IU/L): 6.3 months
- Hazard Ratio (baseline ALP ≤ 250 IU/L): 0.79
- Risk Benefit (baseline ALP ≤ 250 IU/L): 21%

Source: US12648944B2, “Masitinib for the treatment of castrate-resistant prostate cancer” (AB SCIENCE, priority 2021, dated 2026)
